Active and inactive are the calls of the source.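 Rule for the calls: active = compounds giving half or more protection of infected cells from virus-caused growth loss, again on retest; inactive = the rest.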
Test system: CEM cells HIV-1 protection, formazan growth assay
Test: NCI AIDS Antiviral Assay
Conditions: for IC50: measured here: growth of uninfected CEM cells
Summary of the method: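 Five concentrations of each compound were applied to infected and uninfected human CEM cells. Protection from HIV-1 was judged from growth measured with a soluble formazan assay.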

SMILES	EC50 [µM]	IC50 [µM]	outcome
COc1cc(C)c(C(=O)Oc2cc(C)c(C(=O)O)c(O)c2C)c(OC)c1C	> 200	70.8	
Cn1c(=O)cc(NNc2ccc(Br)cc2)[nH]c1=O	> 200	6.17	
O=[N+]([O-])/C=C/c1cn(CCCCCCCCCCCCn2cc(/C=C/[N+](=O)[O-])c3ccccc32)c2ccccc12	> 100	> 100	
Cc1cc(NS(=O)(=O)c2ccc(NC(NC(=O)C(C(F)(F)F)C(F)(F)F)(C(F)(F)F)C(F)(F)F)cc2)no1	> 200	> 200	
CCCCCCCCCCCCCC(=O)OC1C(C)C2(O)C(C=C(CO)CC3(O)C(O)C(C)=CC32)C2C(C)(C)C12OC(C)=O (stereo unspecified)			active
O=C(O)c1cc2c(cc1C(=O)O)C(=O)C(c1ccccc1)C2=O	> 200	> 200	
CN(C)/C=N\c1nn[nH]n1	> 200	3.63	
Cc1cccc(/C=N/NC(=S)NC(C)(C)C)n1	> 200	18.2	
CCCOc1cc2c(c3oc(=O)cc(CCC)c13)C(=O)[C@H](C)[C@@H](C)O2	> 200	5.5	
Cc1ccc(NC(=O)CCC/C(CC(=O)c2ccc(Br)cc2)=N/NC(=O)CC#N)cc1	> 102	> 102	
O=c1c2cnccc2cc2c3ccccc3ccn12	> 200	7.41	
Cc1nc2ccccc2n(CC2CCCN3CCCC[C@H]23)c1=O (stereo partly specified)	> 200	> 200	
COc1nc2ncc([C@@H](OC(C)=O)[C@@H](COC(C)=O)OC(C)=O)nc2c(=O)[nH]1	> 200	> 200	
CCCCCC[n+]1noc(N)c1-c1ccc(-c2c(N)on[n+]2CCCCCC)cc1	> 200	2.57	
Cn1c(N2CCCC2)c(C=O)c(=O)n(C)c1=O			inactive
O=C1CCC(N2C(=O)C3C4CCC(O4)C3C2=O)C(=O)N1 (stereo unspecified)	> 200	> 200	
CSC1=C(C)S/C(=C\c2ccc(/C=C3\SC(C)=C(SC)S3)cc2)S1			inactive
O=C(O)c1c([N+](=O)[O-])cc(C(F)(F)F)cc1[N+](=O)[O-]			inactive
O=[N+]([O-])c1ccc(N/N=C2\C=CCCC2)c([N+](=O)[O-])c1	> 200	> 200	
NC(=O)C(=O)Cc1nc2ccccc2s1	> 91.2	> 91.2	
CN(C)C(C(N)=O)c1ccc(Cl)cc1 (stereo unspecified)			inactive

SMILES	EC50 [µM]	IC50 [µM]	outcome
CC(=O)OC1=C2CC3(C)OC(=O)CC(C)(C)C3=CC=C2C=C(C(C)C)C1=O (stereo unspecified)			inactive
COc1ccc2c(ccc3c(C(=O)NCCN(C)CCNC(=O)c4cn(C)c5c4ccc4cc(OC)ccc45)cn(C)c32)c1	> 200	1.15	
O=C(/C=C/c1ccccc1)C[C@@H](O)C[C@@H]1CC=CC(=O)O1	> 200	3.16	
COc1c(NC(=O)CC(C)=O)[c]([Hg][O]C(C)=O)c(OC)c(Cl)[c]1[Hg][O]C(C)=O	> 0.692	> 0.692	
COC1O[C@@H]2CCN3C(=O)[C@@H](OC(=O)c4ccc([N+](=O)[O-])cc4)[C@H]1C23 (stereo partly specified)	> 200	> 200	
O=C(O)c1ccccc1/C=C1/Cc2ccc3c(c2C1=O)CCC3			inactive
CCOC(=O)C(c1ccccc1)c1cccc(C(C(=O)OCC)c2ccccc2)n1 (stereo unspecified)	> 17.8	> 17.8	
C1CCN2CC34CC(CC5CCCN(C6CCCC3N6)C54)C2C1 (stereo unspecified)	> 309	> 309	
Cn1nc2ccc3nccc(NCCNCCO)c3c2n1	> 871	3.89	
Cc1ccc(N/N=c2/ccc(=O)/c(=N\Nc3ccc(S(=O)(=O)O)cc3)c2=O)c(C)c1	> 200	> 200	
C(=C/[PH+](c1ccccc1)c1ccccc1)/[PH+](c1ccccc1)c1ccccc1.C(=C/[PH+](c1ccccc1)c1ccccc1)/[PH+](c1ccccc1)c1ccccc1.C(=C/[PH+](c1ccccc1)c1ccccc1)/[PH+](c1ccccc1)c1ccccc1.[Pt]	> 5.25	3.24	
C[C@@H]1C[C@@]2(O)[C@@H]3C[C@H](F)C4=CC(=O)CC[C@]4(C)[C@H]3[C@@H](O)C[C@]2(C)[C@@]1(O)C(=O)CO	> 200	178	
Cn1[nH]c2[nH]c(=S)sc(=S)c2c1=O	> 200	> 200	
NNC(=O)C(=O)NN=C(C(Cl)(Cl)CO)C(Cl)(Cl)CO	> 20.4	> 20.4	
O=[N+]([O-])c1cc(-c2nc(=S)[nH][nH]2)ccc1O	> 1050	257	
CCOC(=O)C(NC(=O)Nc1ccc(Cl)c(Cl)c1)C(F)(F)F (stereo unspecified)	> 200	141	
CCN1C(=NCCO)NS(=O)(=O)c2ccccc21	> 200	> 200	
CCOC(=O)CCC(NC(=O)c1ccc(Oc2nc3ccccc3nc2-c2ccccc2)cc1)C(=O)OCC (stereo unspecified)	> 200	> 200	
NS(=O)(=O)C1CCCCC1C(=O)NNC(=O)C(=O)Nc1nc(=S)[nH][nH]1 (stereo unspecified)	> 646	> 646	
CC(=O)NNc1nc(C)c(C(=O)NNC(=O)C(=O)Nc2c(C)cccc2C(C)(C)C)s1	> 151	26.3	
O=C(O)c1cc2c3c(c1)[C@H]1C=CC[C@H]1CN3CC1CC=CC21 (stereo partly specified)			inactive
